What was measured:
Type in all cases: physicochemical
[1] = Chemical compatibility of the compound of formula (I) with polymers: melt extrudates analysed by HPLC for total impurity; details: hot melt extrusion
Excerpt: Assay, Degradation Products/Impurities by HPLC
Principle: RP HPLC with UV detection
• Acetonitrile (HPLC grade, e.g. Merck) • Water (e.g. from Milli-Q instrument) • Methanol (Analytical grade, e.g. Sigma-Aldrich or equivalent) • Solvent: Water/acetonitrile 40/60 (v/v)
• Apparatus: e.g. HP 1290 (UPLC) • Column: Waters Acquity BEH C18 (Length 100 mm, internal diameter 2.1 mm or equivalent column and particle size 1.7 μm)
• Mobile Phase: • A: Water/Acetonitrile/TFA (95:5:0.05 v/v/v) • B: Water/Acetonitrile/TFA (5:95:0.05 v/v/v)
Column temperature: 30° C. Auto-sampler temperature: Ambient Needle wash: Methanol/water 80/20 (v/v) Injection volume: • 2 μl of the test and reference solutions, equivalent to about • 0.6 μg of drug substance compound of formula (I) in the reference solution Run time: 18 min […]
The compatibility of the compound of formula (I) with various polymers was tested by preparing melt extrudates according to the manufacturing process as described in example 1 and analyzing the resulting melt extrudates by HPLC to determine the amount of degradation or related products (“impurities”) of the compound of formula (I). […] The amount of total impurities was assessed according to the guideline that the sum of specified and unspecified impurities (herein referred to as total impurity) is preferably not more than (NMT) 0.5%. […]

[2] = Kinetic solubility of melt extrudates (rotating bottle); details: aqueous buffer; melt extrudates equivalent to 100 mg compound of formula (I), pH 6.8 phosphate buffer, rotating bottle 50 rpm, 37° C.
Procedure: • Principle: Measurement of the amount of drug substance solubilized using rotating bottle apparatus. Determination by HPLC/UV method for sample analysis.
• Speed of rotation: 50 rpm • Test medium: […] • Volume of test medium: 75 mL • Temperature: 37±0.5° C. Sampling Time points 5, 10, 15, 20, 25, 30, 45, 60 minutes
Procedure: The concentration maximum is taken as kinetic solubility value.
(§1) Melt extrudates were prepared according to example 1. The kinetic solubility and the physical state of the compound of formula (I) were determined. […] Kinetic solubility were determined by adding melt extrudates equivalent to 100 mg of the compound of formula (I) in pH 6.8 phosphate buffer using a rotating bottle at 50 rpm and at a temperature of 37° C. The physical state (crystalline or amorphous) was determined by XRPD (discrete peaks indicating some of the material being in a crystalline state, absence of peaks indicating amorphous state).

[3] = Physical state of compound of formula (I) in melt extrudates by XRPD
Procedure: X-Ray Powder Diffraction (XRPD) Analysis
• Principle: X-ray powder diffraction (XRPD) in reflection geometry • Equipment: Powder diffractomer e.g. type Bruker D8 Discover • Procedure: Place the test substance on the specimen holder. Record the X-ray diffraction pattern between 5° and 40° (2-theta) with Cu Kα radiation (1.5406 Å) in reflection geometry using the following conditions • Detector type: Lynx Eye • High voltage: 40 kV • Current: 40 mA • Scan type: continuous • Step time: 0.3 s • Step size: 0.016° • Soller slit: 2.5° • Slits: 0.6 mm • Method: A part of the sample is used without preparation for the measurement. […] Record the X-ray diffraction pattern between 5° and 40° (2Theta) with CuKα radiation. • Evaluation: Observe the recorded diffractogram and report any detectable diffraction peak. […]
as §1

SMILES: C[C@H]1OC(=O)N(c2cc(-c3cnc(N)nc3C(F)(F)F)nc(N3CCOCC3)n2)[C@H]1CO [compound of formula (I), (4S,5R)-3-(2′-Amino-2-morpholin-4-yl-4′-trifluoromethyl-[4,5]bipyrimidinyl-6-yl)-4-hydroxymethyl-5-methyl-oxazolidin-2-one]
- processing temperature leading to degradation of compound of formula (I) [1]: exceeding 205 °C
- solubility kinetic [2]: ~40 µg/mL
- Physical state of compound of formula (I) (XRPD) [3]: Crystalline

Reference: patent US20170209455A1, “Solid Pharmaceutical Composition Comprising PI3K-Inhibitor” (NOVARTIS AG, priority 2014, published 2017)
